Values after ≈ are worked out from the molar mass of the structure shown.
Assays:
[1] = system: T. gondii tachyzoites (RH strain); assay: T. gondii growth inhibition in HFF monolayers, tritiated uracil uptake; type: cell-based, Toxoplasma gondii
Method: The improvements are based on microscopic visual imspection of infected and inhibitor treated cultures, and on quantitation of nucleic acid synthesis of the parasite by measure intake of ^3H uracil onto the parasite's nucleic acid. Uracil is not utilized by mammalian cells. […] Only the RH strain tachyzoites, cultured for up to 72 hours, had been used in previously reported assays. The use of Me49, Ptg, and R5 mutant are unique aspects of the methods used in these assays in this invention.
(§1) In these assays toxicity of a candidate inhibitor was assessed by its ability to prevent growth of human foreskin fibroblasts (HFF) after 4 days and after 8 days as measured by tritiated thymidine uptake and microscopic evaluation. Confluent monolayers of HFF were infected with tachyzoites and bradyzoites. Inhibitor was added one hour later. Non-toxic doses were used in parasite growth inhibition assays. Parasite growth was measured by ability to incorporate tritiated uracil during the last 18 hours of culture.
(§2) First the toxicity of gabaculine was assessed by its ability to prevent growth of human foreskin fibroblasts (HFF) as measured by ^3H-thymidine uptake and microscopic evaluation. Non-toxic doses were used in parasite growth inhibition assays. in vitro parasite growth inhibition assays included confluent monolayers of HFF infected with tachyzoites (RH) or mutant Me49 (R5). Gabaculine was added 1 hour later. Parasite growth was measured by the ability to incorporate 3H-uracil during the last 18 hours of culture. In addition, parasite growth was evaluated microscopically in Giemsa stained slides.
Confluent monolayers of HFF cells, grown in 96-well plates are infected with T. gondii tachyzoites of the RH strain and serial dilutions of anti-microbial compound are applied 1 hour later. T. gondii growth is assessed in these cultures by their ability to incorporate tritiated uracil (2.5 μCi/well) added during the last 18 hours of culture. After harvesting cells with an automatic cell harvester, uracil incorporation is measured by liquid scintillation.

C. parvum = C. parvum infection of MDBKF5D2 cell monolayers, immunofluorescence assay at 48 hours; type: cell-based, Cryptosporidium parvum; details: for approximate 95% Cl count (mean parasite count per field): media alone ~1800
Method: C. parvum oocysts at 50,000/well were incubated at 37° C. (8% CO2) on confluent MDBKF5D2 cell monolayers in 96 well microtiter plates with the following concentrations of each drug. […] The level of infection of each well was determined and analyzed by an immunofluorescence assay at 48 hours using an antibody to C. parvum sporozoites made in rabbits at a concentration of 0.1%. Fluorescein-conjugated goat anti-rabbit antibody was used at a concentration of 1%.
C. parvum oocysts at 50,000/well were incubated with each drug (PRM=paromomycin which is the positive control, NPMG, gabaculine, SHAM, 8-hydroxyquinoline) at 37° C. (8% carbon dioxide) on confluent MDBKF5D2 cell monolayers in 96 well microtiter plates. The level of infection of each well was determined and analyzed by an immunofluorescence assay at 48 hours using as an antibody C. parvum sporozoite rabbit anti-serum (0.1%), and using fluorescein-conjugated goat anti-rabbit antibody (1%). Data are expressed as mean parasite count/field when 16 fields counted at 10× magnification “s.d. of the mean” (FIG. 6).

[2] = system: D6 clone of Plasmodium falciparum; assay: P. falciparum in vitro growth assay (Milhous et al.), D6 clone; type: cell-based; details: Plasmodium falciparum, D6 clone
[3] = system: W2 clone of Plasmodium falciparum; assay: P. falciparum in vitro growth assay (Milhous et al.), W2 clone; type: cell-based; details: Plasmodium falciparum, W2
P. falciparum = P. falciparum in vitro growth assay, clone not stated; type: cell-based, Plasmodium falciparum
Method: This assay is performed in folate deficient RPMI 1640 over a 66 hour incubation in plasma as described by Milhous et al. (1985). Both the W2 clone DHFR resistant phenotype and the D6 clone are used (Odula et al., 1988) (Table 3).

EPSP synthase = assay: T. gondii EPSP synthase enzyme assay (HPLC detection of EPSP); type: biochemical; details: 1 mM
Method: Assays for 4-aminobenzoate and 4-amino-4-deoxychorismate are performed as described previously.” Enzyme Assays: The 5-enolpyruvylshikimate-3-phosphate (EPSP) synthase assay entailed monitoring the generation of EPSP using HPLC. Reaction components were separated using a Hypersil H3APS2 HPLC column (Hichrom Limited, Reading, UK) and a NaH2PO4 elution gradient (50-400 mM). UV spectra (200-300 nm) of the colume eluate were collected to identify eluants. […] The peaks at 215 nm were integrated; the EPSP produced was quantified using a standard curve of authentic EPSP. Parasite extracts were produced at 4° C. by suspension of pure tachyzoites in extraction buffer (50 mM Tris.HCl, pH 7.5, containing complete TM protease inhibitor cocktail [Boehringer Mannheim, 1 tablet per 50 ml buffer]), sonication 3 times for 3 seconds at 30 second intervals, and centrifugation at 12000 g for 15 min. The resulting supernatant was diluted 6-fold with extraction buffer and loaded onto a ResourceQ column (1 ml, Pharmacia) equilibrated with extraction buffer. The bound protein was eluted in a single step using extraction buffer containing 500 mM Kcl. The eluted material was used for enzyme assay. The assay mix contained 1 mM phosphoenolpyruvate, 1 mM SP and 50 mM HEPES, pH 7.5. […] Protein concentrations of lysates were determined using the Lowry method. […]

[4] = system: mutant R5 strain of T. gondii; assay: Growth of mutant R5 strain of T. gondii in HFF, uracil uptake over 8 days; type: cell-based, Toxoplasma gondii; details: 20 mM gabaculine or P/S, 8 days in culture
Method: Improvements were developed in the assays reported by Mack et al. (1984) and Holfels et al. (1994) to measure T. gondii replication in tissue culture. The improvements are based on microscopic visual imspection of infected and inhibitor treated cultures, and on quantitation of nucleic acid synthesis of the parasite by measure intake of ^3H uracil onto the parasite's nucleic acid. Uracil is not utilized by mammalian cells. […]
First the toxicity of gabaculine was assessed by its ability to prevent growth of human foreskin fibroblasts (HFF) as measured by ^3H-thymidine uptake and microscopic evaluation. […] Parasite growth was measured by the ability to incorporate 3H-uracil during the last 18 hours of culture. In addition, parasite growth was evaluated microscopically in Giemsa stained slides.
This mutant strain is atovaquone resistant and posseses certain characterisitics of the tachyzoite stage and certain characteristics of the bradyzoite stage. T. gondii growth is measure by their ability to incorporate tritiated uracil and is expressed as counts/minute (CPM) on the Y-axis. […]

[5] = system: human foreskin fibroblasts (HFF); assay: Toxicity to human foreskin fibroblasts, tritiated thymidine uptake and microscopy; type: cell-based; details: similar concentrations (20 mM)
Method: as §1, §2
Inhibitor compounds are tested over a range of concentrations for toxicity against mammalian cells by assessing their ability to prevent cell growth as measured by tritiated thymidine uptake and inspection of the monolayer using microscopic evaluation. […]

## O=C(O)CNCP(=O)(O)O [NPMG, N-(phosphonomethyl) glycine]
[1]; NPMG 3.12 mM, 4 day assay, medium around 72,000
  restriction of CPM (tritiated uracil incorporation): around 60%
[1]; NPMG 4.5 mM, 4 days, medium around 72,000, no RH around 2,000 CPM
  counts (tritiated uracil incorporation): about 12,000 CPM
[1]; PABA at increasing concentrations added to cultures
  product rescue by PABA of NPMG inhibition of nucleic acid synthesis: PABA abrogates the inhibitory effects
[1]; Toxoplasma gondii, 96 h, NPMG 4.5 mM, 4 day assay, read-out: inhibition of parasite growth
  inhibition at 4500 µM: ~80%
C. parvum
  product rescue by PABA of NPMG effect on C. parvum: not abrogated by PABA
C. parvum; NPMG 0.45 μg/ml
  approximate 95% Cl count (mean parasite count per field): ~1200 count/field
C. parvum; NPMG 4.5 μg/ml
  approximate 95% Cl count (mean parasite count per field): ~900 count/field
C. parvum; NPMG 0.045
  approximate 95% Cl count (mean parasite count per field): ~1200 count/field
[2]; read-out: IC 50
  IC50: 0.823 µg/mL (≈ 4.87 µM)
[2]; read-out: IC 90
  IC90: 2.51 µg/mL (≈ 14.8 µM)
[3]
  IC50: 1.72 µg/mL (≈ 10.1 µM)
  IC90: 3.4 µg/mL (≈ 20.1 µM)
P. falciparum; PABA and folate
  product rescue of glyphosate inhibition of in vitro growth of asexual erythrocytic forms: PABA and folate antagonism of growth inhibition
EPSP synthase
  inhibition of T. gondii EPSP synthase enzyme activity: inhibition of EPSP synthase enzyme activity

## NC1C=CC=C(C(=O)O)C1 (stereo not drawn) [gabaculine, 3-amino-2,3-dihydrobenzoic acid]
[1]; RH, 20 mM gabaculine or P/S, uracil CPM
  parasite growth over the 8 day time course: restricted
[1]; Toxoplasma gondii, 96 h, gabaculine 5 mM, 4 days, medium about 36,000 CPM
  inhibition at 5000 µM: ~60%
[1]; gabaculine 5 mM, 4 day assay, medium around 45,000 CPM
  restriction of CPM (tritiated uracil incorporation): around 50%
[1]; gabaculine 20 mM, 4 days, medium around 45,000, no RH around 2,000 CPM
  counts (tritiated uracil incorporation): about 5,000 CPM
[4]
  period over which parasite growth was restricted: over the first 6 days of culture, after which a marked increase in parasite growth was detected
[5]
  toxicity to the foreskin fibroblasts: no toxicity
C. parvum; gabaculine 0.2 μg/ml
  approximate 95% Cl count (mean parasite count per field): ~1300 count/field
C. parvum; gabaculine 2 μg/ml
  approximate 95% Cl count (mean parasite count per field): ~600 count/field
C. parvum; gabaculine 20 μg/ml
  approximate 95% Cl count (mean parasite count per field): ~200 count/field
P. falciparum; Plasmodium falciparum
  IC50: ≥ 45 µg/mL
